For orientation: inhibition means the percentage by which the read-out fell short of the control. A low value points to a response near the control. As usually defined, the Inhibition is the change of the read-out against control, counted positive when it falls.

The target in assay [1] is T1, Neutrophil elastase (Homo sapiens) (UniProt P08246).
T1 sequence (whole entry): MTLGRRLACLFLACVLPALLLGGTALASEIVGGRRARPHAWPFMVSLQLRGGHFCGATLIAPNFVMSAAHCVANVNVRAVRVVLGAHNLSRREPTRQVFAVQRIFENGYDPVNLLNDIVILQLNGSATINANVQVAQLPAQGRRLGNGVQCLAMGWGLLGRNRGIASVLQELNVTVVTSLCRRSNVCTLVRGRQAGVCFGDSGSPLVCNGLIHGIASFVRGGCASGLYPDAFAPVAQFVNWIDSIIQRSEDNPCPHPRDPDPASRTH
Put plainly: Inhibition of human leukocyte elastase-induced lung hemorrhage in hamster, after 100 ug of compound administered intratracheally. It is filed as functional, tissue-based.

The target in assay [2] is T1, Neutrophil elastase (Homo sapiens). Put plainly: Inhibition of human leukocyte elastase, expressed as biomolecular rate constant.
Assay [3] relates to Cricetinae gen. sp. The experiment in a line: Compound at dose 20 ug was tested for percentage inhibition of HLE-induced Lung Hemorrhage in hamsters at 1 hr prior to installation of human leukocyte elastase. It is filed as functional, Cricetulus griseus.
Assay [4] concerns Cricetinae gen. sp. The experiment in a line: Compound at dose 20 ug was tested for percentage inhibition of HLE-induced Lung Hemorrhage in hamsters at 3 hr prior to installation of human leukocyte elastase. It is filed as functional, Cricetulus griseus.
Assay [5] deals with Cricetinae gen. sp. Put plainly: Compound at dose 20 ug was tested for percentage inhibition of HLE-induced Lung Hemorrhage in hamsters at 2 hr prior to installation of human leukocyte elastase. It is filed as functional, Cricetulus griseus.
The subject of assay [6] is Cricetinae gen. sp. The experiment in a line: Effective dose administered intratracheally required to give 50% inhibition at 30 minutes prior to installation of human leukocyte elastase in hamster lung. It is filed as functional, Cricetulus griseus.
Assay [7] deals with Cricetinae gen. sp. The experiment in a line: Compound at dose 20 ug was tested for percentage inhibition of HLE-induced Lung Hemorrhage in hamsters at 4 hr prior to installation of human leukocyte elastase. It is filed as functional, Cricetulus griseus.

`CCC1C(=O)N(S(=O)(=O)c2ccc(C)cc2)C1C(=O)O` (cis isomer): in assay [1], the inhibition was found to be 80%. In assay [2], this molecule showed a K obs / 1 of 93 M⁻¹ s⁻¹.
In assay [1], `CC[C@H]1C(=O)N(C(=O)NCc2ccccc2)[C@@H]1Oc1ccc(C(=O)O)cc1` displayed an inhibition of 2%. Moreover, the K obs / 1 in assay [2] was found to be 3840 M⁻¹ s⁻¹.
`CCCC1C(=O)N(C(=O)OCC)C1OCC(=O)O` (stereo not given): the Inhibition with Cricetinae gen. sp. [3] was 83%; in the assay with Cricetinae gen. sp. [4] it was -17%; in the assay with Cricetinae gen. sp. [5], 31%; in the assay on Cricetinae gen. sp. [7] it was -2%. For the same molecule, in assay [1], the inhibition is 88%. Besides, in assay [2], the K obs / 1 was 1500 M⁻¹ s⁻¹. Further, the ED50 in the assay with Cricetinae gen. sp. [6] came to 6.3 µg.
`CC[C@H]1C(=O)N(S(=O)(=O)c2ccc(C)cc2)[C@H]1C(=O)N(C)CC(=O)O` had an inhibition in assay [1] of 61%. In addition, in assay [2], the K obs / 1 was determined as 110 M⁻¹ s⁻¹.
Consider `CCC1C(=O)N(S(=O)(=O)c2ccc(C)cc2)C1C(=O)OCC(=O)O` (cis isomer) [listing 1 of 2 here], for which the inhibition in assay [1] is 73%. Besides, in assay [2], the K obs / 1 was determined as 1550 M⁻¹ s⁻¹.
As for `CCC1C(=O)N(S(=O)(=O)c2ccc(C)cc2)C1C(=O)N(C)CC(=O)O` (cis isomer), the Inhibition with Cricetinae gen. sp. [3] is 78%; in the assay with Cricetinae gen. sp. [4], 60%; in the assay with Cricetinae gen. sp. [5], 68%; in the assay on Cricetinae gen. sp. [7], 4%. This molecule yielded an inhibition in assay [1] of 84%. In assay [2], this molecule displayed a K obs / 1 of 165 M⁻¹ s⁻¹. In addition, in the assay with Cricetinae gen. sp. [6], the ED50 was 18.7 µg.
For `CCOC(=O)N1C(=O)C(CC)C1SCC(=O)O` (trans isomer), in assay [1], the inhibition was determined as 56%. This molecule had a K obs / 1 in assay [2] of 1090 M⁻¹ s⁻¹.
Regarding `CCOC(=O)N1C(=O)C(CC)C1Oc1ccc(C(=O)O)cc1` (trans isomer), the K obs / 1 in assay [2] is 6350 M⁻¹ s⁻¹.
Still for that read-out and setting: for `CCOC(=O)N1C(=O)C(CC)C1Oc1ccc(CC(=O)O)cc1` (trans isomer) the value was 4100 M⁻¹ s⁻¹.
For `CCC1C(=O)N(C(=O)OCc2ccccc2)C1OCC(=O)O` (trans isomer), the inhibition in assay [1] stood at 51%. This molecule also showed a K obs / 1 in assay [2] of 955 M⁻¹ s⁻¹.
Turning to `CCOC(=O)N1C(=O)C(CC)C1OC(C)C(=O)O` (single isomer, unassigned; isomer B), the inhibition in assay [1] is 81%. Also, in assay [2], the K obs / 1 stood at 158 M⁻¹ s⁻¹.
In the case of `CCC1C(=O)N(S(=O)(=O)c2ccc(C)cc2)C1C(=O)OCC(=O)O` (cis isomer) [listing 2 of 2 here], the Inhibition in the assay with Cricetinae gen. sp. [3] worked out at 66%; in the assay with Cricetinae gen. sp. [4], 11%; in the assay with Cricetinae gen. sp. [5], 32%; with Cricetinae gen. sp. [7], 30%. The molecule also gave an ED50 in the assay with Cricetinae gen. sp. [6] of 24.6 µg.
Regarding `CCOC(=O)N1C(=O)[C@@H](CC)[C@@H]1OCC(=O)O`, the Inhibition in the assay on Cricetinae gen. sp. [3] is recorded as 92%; with Cricetinae gen. sp. [4] it was 6%; in the assay on Cricetinae gen. sp. [5], 49%; in the assay on Cricetinae gen. sp. [7] it was -3%. The same molecule gave an inhibition in assay [1] of 86%. The molecule further registered a K obs / 1 in assay [2] of 136 M⁻¹ s⁻¹. The molecule also registered an ED50 in the assay on Cricetinae gen. sp. [6] of 11.3 µg.
As for `CCOC(=O)N1C(=O)C(CC)C1OCCC(=O)O` (trans isomer), the inhibition in assay [1] was found to be 31%. The same molecule returned a K obs / 1 in assay [2] of 560 M⁻¹ s⁻¹.
As for `CCC1C(=O)N(C(=O)NCc2ccccc2)C1Oc1ccc(CC(=O)O)cc1` (trans isomer), the K obs / 1 in assay [2] came to 2070 M⁻¹ s⁻¹.
As for `CC[C@@H]1C(=O)N(S(=O)(=O)c2ccc(C)cc2)[C@@H]1C(=O)N(C)CC(=O)O`, the inhibition in assay [1] came to 94%. The molecule also came in with a K obs / 1 in assay [2] of 732 M⁻¹ s⁻¹.
In assay [1], `CCOC(=O)N1C(=O)C(CC)C1OCCCC(=O)O` (trans isomer) showed an inhibition of 23%. The molecule also returned a K obs / 1 in assay [2] of 1250 M⁻¹ s⁻¹.
`CCOC(=O)N1C(=O)C(CC)C1OC(C)C(=O)O` (single isomer, unassigned; isomer A): the inhibition in assay [1] is 71%. In assay [2], this molecule yielded a K obs / 1 of 346 M⁻¹ s⁻¹.
The corresponding values for `CC[C@@H]1C(=O)N(C(=O)NCc2ccccc2)[C@H]1Oc1ccc(C(=O)O)cc1` are 17% and 339 M⁻¹ s⁻¹.
The like results for `CC[C@H]1C(=O)N(S(=O)(=O)c2ccc(C)cc2)[C@@H]1C(=O)N(C)CC(=O)O` were, in that order, 99% and 271 M⁻¹ s⁻¹.
In assay [1], `CCOC(=O)N1C(=O)C(CC)C1OCC(=O)O` (trans isomer) [listing 1 of 2 here] came in with an inhibition of 98%. In assay [2], this molecule showed a K obs / 1 of 467 M⁻¹ s⁻¹.
`CCC1C(=O)N(S(=O)(=O)c2ccc(C)cc2)C1C(=O)OCC(=O)O` (stereo in doubt): the inhibition in assay [1] was found to be 14%. For the same molecule, in assay [2], the K obs / 1 came out at 9420 M⁻¹ s⁻¹.
`CCOC(=O)N1C(=O)C(CC)C1OCC(=O)O` (cis isomer) gave an inhibition in assay [1] of 81%. For the same molecule, the K obs / 1 in assay [2] was 796 M⁻¹ s⁻¹.
Regarding `CCOC(=O)N1C(=O)[C@H](CC)[C@H]1OCC(=O)O`, the Inhibition is 100% in the assay with Cricetinae gen. sp. [3], 59% in the assay on Cricetinae gen. sp. [4], 82% in the assay with Cricetinae gen. sp. [5] and -14% in the assay with Cricetinae gen. sp. [7]. This molecule also showed an inhibition in assay [1] of 99%. In addition, the K obs / 1 in assay [2] turned out to be 918 M⁻¹ s⁻¹. Moreover, the ED50 in the assay on Cricetinae gen. sp. [6] is 3.9 µg.
In assay [1], `CCOC(=O)N1C(=O)C(CC)C1OCC(=O)NCC(=O)O` (stereo not given) displayed an inhibition of 72%. This molecule also yielded a K obs / 1 in assay [2] of 1000 M⁻¹ s⁻¹.
For the molecule `CCOC(=O)N1C(=O)C(CC)C1[S+]([O-])CC(=O)O` (stereo not given), the inhibition in assay [1] was found to be 71%. In assay [2], the K obs / 1 was 1670 M⁻¹ s⁻¹.
Turning to `CC[C@@H]1C(=O)N(S(=O)(=O)c2ccc(C)cc2)[C@H]1C(=O)N(C)CC(=O)O`, the inhibition in assay [1] was 74%. Further, the K obs / 1 in assay [2] came to 398 M⁻¹ s⁻¹.
In turn, `CCOC(=O)N1C(=O)C(CC)C1S(=O)(=O)CC(=O)O` (trans isomer) displayed an inhibition in assay [1] of 70%. The K obs / 1 in assay [2] stood at 5620 M⁻¹ s⁻¹.
For the molecule `CCOC(=O)N1C(=O)C(CC)C1OCC(=O)O` (trans isomer) [listing 2 of 2 here], the Inhibition with Cricetinae gen. sp. [3] is on record as 96%; in the assay on Cricetinae gen. sp. [4], 36%; with Cricetinae gen. sp. [5], 63%; in the assay on Cricetinae gen. sp. [7], -5%. Further, in the assay with Cricetinae gen. sp. [6], the ED50 turned out to be 6.3 µg.
Take `CO[C@H]1C(=O)N2C(C(=O)N3CCC[C@H]3C(=O)O)=C(COC(C)=O)CS(=O)(=O)[C@H]12`: the Inhibition was 98% in the assay with Cricetinae gen. sp. [3], 74% in the assay on Cricetinae gen. sp. [4], 85% with Cricetinae gen. sp. [5] and -23% with Cricetinae gen. sp. [7]. Moreover, the ED50 in the assay with Cricetinae gen. sp. [6] worked out at 3.1 µg.
In the case of `CC[C@H]1C(=O)N(S(=O)(=O)c2ccc(C)cc2)[C@@H]1C(=O)O`, the Inhibition in the assay with Cricetinae gen. sp. [3] is 78%; in the assay on Cricetinae gen. sp. [4], 1%; with Cricetinae gen. sp. [5] it was 33%; in the assay with Cricetinae gen. sp. [7], 16%. The molecule further gave an inhibition in assay [1] of 98%. The molecule further yielded a K obs / 1 in assay [2] of 377 M⁻¹ s⁻¹. In the assay with Cricetinae gen. sp. [6], this molecule returned an ED50 of 3 µg.
The molecule `CCC1C(=O)N(C(=O)NCc2ccccc2)C1OCC(=O)O` (stereo not given) returned an inhibition in assay [1] of 50%. In addition, the K obs / 1 in assay [2] is 129 M⁻¹ s⁻¹.

For the origin of these results see ChEMBL document CHEMBL1125952, “Prevention of human leukocyte elastase-mediated lung damage by 3-alkyl-4-azetidinones” (1991).
